The values below come from ChEMBL document CHEMBL5465560, “Selectivity Literature for EUbOPEN Chemogenomic Library” (2024).

The target in test [1] is T1, Ephrin type-A receptor 6 (Homo sapiens) (UniProt Q9UF33).
T1 sequence (whole entry): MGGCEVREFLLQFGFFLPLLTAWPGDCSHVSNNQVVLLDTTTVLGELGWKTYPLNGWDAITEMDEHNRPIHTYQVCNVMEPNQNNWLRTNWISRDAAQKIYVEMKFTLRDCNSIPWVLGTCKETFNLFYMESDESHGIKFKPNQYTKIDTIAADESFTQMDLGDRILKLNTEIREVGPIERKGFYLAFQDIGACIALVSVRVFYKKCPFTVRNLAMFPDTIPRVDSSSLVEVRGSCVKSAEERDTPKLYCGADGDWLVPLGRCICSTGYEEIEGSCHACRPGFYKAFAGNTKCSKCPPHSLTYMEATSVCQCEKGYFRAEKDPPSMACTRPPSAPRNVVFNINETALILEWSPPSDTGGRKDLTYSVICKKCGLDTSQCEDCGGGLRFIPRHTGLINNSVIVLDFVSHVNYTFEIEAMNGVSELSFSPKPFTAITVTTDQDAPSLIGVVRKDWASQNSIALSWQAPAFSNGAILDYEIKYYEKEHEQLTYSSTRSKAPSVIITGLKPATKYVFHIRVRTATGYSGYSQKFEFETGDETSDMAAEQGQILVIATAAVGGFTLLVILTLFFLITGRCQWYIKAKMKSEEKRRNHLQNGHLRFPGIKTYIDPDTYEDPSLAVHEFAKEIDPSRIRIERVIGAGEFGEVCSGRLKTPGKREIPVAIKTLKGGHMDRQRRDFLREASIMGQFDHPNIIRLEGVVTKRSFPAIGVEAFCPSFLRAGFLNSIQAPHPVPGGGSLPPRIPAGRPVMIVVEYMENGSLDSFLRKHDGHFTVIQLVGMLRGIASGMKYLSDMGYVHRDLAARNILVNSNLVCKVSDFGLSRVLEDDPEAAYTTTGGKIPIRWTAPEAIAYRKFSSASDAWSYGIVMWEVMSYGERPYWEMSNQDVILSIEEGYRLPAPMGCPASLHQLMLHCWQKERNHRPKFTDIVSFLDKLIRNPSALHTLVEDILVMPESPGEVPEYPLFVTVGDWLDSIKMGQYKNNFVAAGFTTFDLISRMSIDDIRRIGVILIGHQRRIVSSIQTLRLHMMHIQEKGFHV
As to the kind of experiment: Selectivity interaction (LanthaScreen Eu Kinase Binding Assay) EUB0001632a EPHA6. The conditions noted are these: at 10 µM. In general terms: In TR-FRET formats the signal depends on donor and acceptor labels being close together.

In test [2] the target is Receptor tyrosine-protein kinase erbB-2 (Homo sapiens, UniProt P04626). As to the kind of experiment: Selectivity interaction (KinomeScan (DiscoverX)) EUB0000666a ERBB2. As to conditions: at 10 µM.
Sequence of Receptor tyrosine-protein kinase erbB-2 (P04626 whole entry): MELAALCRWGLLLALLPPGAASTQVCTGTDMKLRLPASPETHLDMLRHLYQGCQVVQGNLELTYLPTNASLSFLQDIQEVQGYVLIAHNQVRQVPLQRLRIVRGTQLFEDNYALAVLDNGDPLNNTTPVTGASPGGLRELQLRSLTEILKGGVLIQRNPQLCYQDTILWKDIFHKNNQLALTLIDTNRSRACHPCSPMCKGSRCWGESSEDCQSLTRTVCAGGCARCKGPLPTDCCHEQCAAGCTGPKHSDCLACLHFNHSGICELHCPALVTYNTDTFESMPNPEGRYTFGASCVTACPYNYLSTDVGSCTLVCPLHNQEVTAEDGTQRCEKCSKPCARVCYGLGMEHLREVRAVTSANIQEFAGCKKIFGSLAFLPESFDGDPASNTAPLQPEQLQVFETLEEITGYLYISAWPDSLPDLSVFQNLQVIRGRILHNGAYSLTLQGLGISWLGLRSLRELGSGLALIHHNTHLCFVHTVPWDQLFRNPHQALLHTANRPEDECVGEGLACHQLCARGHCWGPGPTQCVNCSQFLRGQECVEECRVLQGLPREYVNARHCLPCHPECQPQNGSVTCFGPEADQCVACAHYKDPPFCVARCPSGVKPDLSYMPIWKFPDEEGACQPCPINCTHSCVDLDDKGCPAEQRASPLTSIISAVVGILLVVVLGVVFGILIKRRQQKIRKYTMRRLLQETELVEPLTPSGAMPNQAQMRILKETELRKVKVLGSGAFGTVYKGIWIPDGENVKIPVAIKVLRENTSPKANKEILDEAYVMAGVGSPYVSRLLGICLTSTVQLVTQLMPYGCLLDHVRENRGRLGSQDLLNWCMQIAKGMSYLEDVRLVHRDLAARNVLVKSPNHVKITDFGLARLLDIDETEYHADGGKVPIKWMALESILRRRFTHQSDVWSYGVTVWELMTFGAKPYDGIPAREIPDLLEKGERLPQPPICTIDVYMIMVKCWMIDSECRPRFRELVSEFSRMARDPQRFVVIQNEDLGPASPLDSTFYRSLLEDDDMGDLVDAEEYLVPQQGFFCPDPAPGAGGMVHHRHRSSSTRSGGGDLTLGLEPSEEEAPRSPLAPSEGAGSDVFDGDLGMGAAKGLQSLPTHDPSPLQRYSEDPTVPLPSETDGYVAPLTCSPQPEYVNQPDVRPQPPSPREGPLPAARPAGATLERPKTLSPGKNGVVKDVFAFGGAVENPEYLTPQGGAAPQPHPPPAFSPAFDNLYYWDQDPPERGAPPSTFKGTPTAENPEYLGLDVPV
Test [3] deals with MAP/microtubule affinity-regulating kinase 3 (Homo sapiens) (UniProt P27448). As to the kind of experiment: Selectivity interaction (ActivX KiNativ screen (kinase selectivity in THP-1 cell lysates)) EUB0000639a MARK3. Type of test: subcellular. The conditions noted are these: lysate, at 0.2 µM.
Sequence of MAP/microtubule affinity-regulating kinase 3 (Homo sapiens) (P27448 whole entry, looked up): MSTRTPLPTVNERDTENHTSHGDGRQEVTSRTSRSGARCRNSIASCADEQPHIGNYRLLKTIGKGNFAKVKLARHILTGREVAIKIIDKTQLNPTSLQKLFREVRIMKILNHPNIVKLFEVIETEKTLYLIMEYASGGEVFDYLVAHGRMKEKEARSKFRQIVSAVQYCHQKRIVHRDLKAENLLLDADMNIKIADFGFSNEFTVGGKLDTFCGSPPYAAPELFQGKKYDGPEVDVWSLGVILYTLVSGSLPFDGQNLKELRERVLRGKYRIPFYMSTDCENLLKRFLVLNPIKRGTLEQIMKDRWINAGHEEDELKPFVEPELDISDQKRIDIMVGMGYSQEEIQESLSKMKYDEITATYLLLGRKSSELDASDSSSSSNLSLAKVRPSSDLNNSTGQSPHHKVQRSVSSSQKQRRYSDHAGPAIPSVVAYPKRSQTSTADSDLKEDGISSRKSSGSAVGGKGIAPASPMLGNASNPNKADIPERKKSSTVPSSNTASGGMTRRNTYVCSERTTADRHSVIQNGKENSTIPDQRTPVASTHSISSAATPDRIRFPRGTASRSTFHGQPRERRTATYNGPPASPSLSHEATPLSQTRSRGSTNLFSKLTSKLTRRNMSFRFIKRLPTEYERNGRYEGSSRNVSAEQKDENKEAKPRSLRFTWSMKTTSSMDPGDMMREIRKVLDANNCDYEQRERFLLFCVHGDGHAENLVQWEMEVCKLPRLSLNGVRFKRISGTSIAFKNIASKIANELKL
Test [4] concerns the target T2, Serine/threonine-protein kinase Chk1 (Homo sapiens) (UniProt O14757).
T2 sequence (whole entry): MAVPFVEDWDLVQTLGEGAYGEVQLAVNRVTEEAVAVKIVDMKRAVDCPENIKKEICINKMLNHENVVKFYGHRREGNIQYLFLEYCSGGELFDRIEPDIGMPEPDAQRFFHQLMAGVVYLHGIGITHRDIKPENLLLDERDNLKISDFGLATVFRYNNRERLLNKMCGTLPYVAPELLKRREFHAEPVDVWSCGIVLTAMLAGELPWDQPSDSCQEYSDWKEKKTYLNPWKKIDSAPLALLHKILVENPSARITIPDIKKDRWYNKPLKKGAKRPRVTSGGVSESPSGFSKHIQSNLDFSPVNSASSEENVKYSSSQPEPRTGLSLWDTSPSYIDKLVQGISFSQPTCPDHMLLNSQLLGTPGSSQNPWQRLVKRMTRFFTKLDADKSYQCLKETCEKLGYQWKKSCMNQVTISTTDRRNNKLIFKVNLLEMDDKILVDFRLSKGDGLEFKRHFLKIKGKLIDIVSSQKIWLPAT
The experiment in a line: Selectivity interaction (Kinase panel (literature)) EUB0001199aCl CHEK1. As to conditions: at 1 µM.

For test [5], the target named is Non-receptor tyrosine-protein kinase TYK2 (Homo sapiens, UniProt P29597). The experiment in a line: Selectivity interaction (Kinase panel (Carna Biosciences)) EUB0001542aTs TYK2. The conditions noted are these: at 1 µM.
Sequence of Non-receptor tyrosine-protein kinase TYK2 (P29597 whole entry): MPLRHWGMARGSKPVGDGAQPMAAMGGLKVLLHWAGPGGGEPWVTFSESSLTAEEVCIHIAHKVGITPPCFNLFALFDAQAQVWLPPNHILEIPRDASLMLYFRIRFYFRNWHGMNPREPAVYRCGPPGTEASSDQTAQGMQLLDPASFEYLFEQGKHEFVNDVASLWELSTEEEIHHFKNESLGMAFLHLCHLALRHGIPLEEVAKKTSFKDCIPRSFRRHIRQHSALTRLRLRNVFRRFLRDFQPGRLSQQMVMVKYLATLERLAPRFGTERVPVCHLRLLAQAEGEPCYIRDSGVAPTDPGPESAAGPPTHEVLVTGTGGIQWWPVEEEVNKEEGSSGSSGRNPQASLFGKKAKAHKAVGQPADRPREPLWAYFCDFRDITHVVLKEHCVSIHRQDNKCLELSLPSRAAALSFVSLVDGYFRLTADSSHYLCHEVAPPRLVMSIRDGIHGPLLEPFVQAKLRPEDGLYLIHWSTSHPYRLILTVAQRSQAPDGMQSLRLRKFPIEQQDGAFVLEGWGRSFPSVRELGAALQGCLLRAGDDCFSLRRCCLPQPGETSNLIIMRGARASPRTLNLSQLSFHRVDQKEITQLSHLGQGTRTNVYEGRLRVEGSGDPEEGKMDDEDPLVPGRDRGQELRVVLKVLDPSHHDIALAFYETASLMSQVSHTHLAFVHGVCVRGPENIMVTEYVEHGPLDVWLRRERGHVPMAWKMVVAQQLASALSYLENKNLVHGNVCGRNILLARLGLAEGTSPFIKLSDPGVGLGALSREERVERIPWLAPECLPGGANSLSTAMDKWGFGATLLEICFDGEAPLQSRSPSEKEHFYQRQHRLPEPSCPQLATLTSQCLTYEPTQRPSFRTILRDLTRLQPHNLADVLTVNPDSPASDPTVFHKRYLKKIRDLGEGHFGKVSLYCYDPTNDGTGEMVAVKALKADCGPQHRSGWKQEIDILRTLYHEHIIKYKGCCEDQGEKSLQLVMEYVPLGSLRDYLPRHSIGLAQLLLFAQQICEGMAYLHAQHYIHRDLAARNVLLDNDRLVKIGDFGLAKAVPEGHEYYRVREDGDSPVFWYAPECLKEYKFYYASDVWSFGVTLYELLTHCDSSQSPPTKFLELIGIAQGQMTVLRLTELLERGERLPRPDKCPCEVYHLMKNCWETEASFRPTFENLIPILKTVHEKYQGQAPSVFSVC
Test [6] addresses T3, Interleukin-1 receptor-associated kinase 4 (Homo sapiens) (UniProt Q9NWZ3).
T3 sequence (whole entry): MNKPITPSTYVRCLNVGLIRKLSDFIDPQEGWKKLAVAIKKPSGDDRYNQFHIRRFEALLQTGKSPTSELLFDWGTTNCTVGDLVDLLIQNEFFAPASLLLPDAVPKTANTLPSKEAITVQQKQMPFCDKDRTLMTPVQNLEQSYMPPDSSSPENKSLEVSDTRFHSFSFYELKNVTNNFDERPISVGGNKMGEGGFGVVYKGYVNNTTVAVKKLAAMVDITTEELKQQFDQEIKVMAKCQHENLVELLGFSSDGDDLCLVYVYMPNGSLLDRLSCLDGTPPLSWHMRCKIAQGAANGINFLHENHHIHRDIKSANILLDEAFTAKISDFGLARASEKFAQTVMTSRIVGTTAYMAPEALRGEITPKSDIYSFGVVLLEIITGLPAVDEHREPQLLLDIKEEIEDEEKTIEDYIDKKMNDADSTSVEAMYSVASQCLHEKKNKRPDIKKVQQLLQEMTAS
As to the kind of experiment: Selectivity interaction (KinomeScan (DiscoverX)) EUB0000655a IRAK4. As to conditions: at 10 µM.

Test [7] concerns the target Tyrosine-protein kinase CSK (Homo sapiens) (UniProt P41240). As to the kind of experiment: Selectivity interaction (Kinase panel (KiNativ target engagement assay in Jurkat cells)) EUB0001635a CSK. Type of test: cell-based. As to conditions: at 1 µM.

Sequence of Tyrosine-protein kinase CSK (Homo sapiens) (P41240 2-450 limits assumed): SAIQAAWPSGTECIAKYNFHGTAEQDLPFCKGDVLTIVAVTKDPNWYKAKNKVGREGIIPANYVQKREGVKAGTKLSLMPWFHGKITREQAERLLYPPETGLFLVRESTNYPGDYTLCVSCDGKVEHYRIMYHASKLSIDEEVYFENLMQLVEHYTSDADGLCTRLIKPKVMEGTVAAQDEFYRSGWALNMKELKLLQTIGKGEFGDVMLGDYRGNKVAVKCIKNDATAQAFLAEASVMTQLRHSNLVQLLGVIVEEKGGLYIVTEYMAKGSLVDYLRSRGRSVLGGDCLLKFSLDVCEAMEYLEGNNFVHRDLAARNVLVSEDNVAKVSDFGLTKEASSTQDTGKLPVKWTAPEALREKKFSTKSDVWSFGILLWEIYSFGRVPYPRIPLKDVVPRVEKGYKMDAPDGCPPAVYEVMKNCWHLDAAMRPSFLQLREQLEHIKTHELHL

Take `Cn1cc(-n2cnc3c(NCc4nc5cc(Cl)c(Cl)cc5[nH]4)nc(N4CCOCC4)nc32)cn1`: the % of inhibition in test [1] was -24%.

On to `O=C(NOC[C@H](O)CO)c1ccc(F)c(F)c1Nc1ccc(I)cc1F`, for which, in test [2], the % of control was 100%.

Regarding `CC[C@@H]1[C@H](F)C(=O)N[C@@H]1COc1nccc2cc(C(N)=O)c(OC)cc12` [ZIMLOVISERTIB], in test [3], the % of inhibition is 2.7%.

Regarding `CN1Cc2nccc(-c3cn(C)nc3-c3ccc(F)cc3)c2C1=O`, in test [4], the % of inhibition was found to be 7%.

As for `Cn1cc(Nc2nccc(N3CC4CCC(C3)N4C(=O)[C@@H]3CC3(F)F)n2)cn1`, the % of inhibition in test [5] was 101%.

`CN(C)CCOc1ccc(-c2nc(-c3ccncc3)c(-c3ccc4c(c3)CC/C4=N\O)[nH]2)cc1` yielded a % of control in test [6] of 91%.

`C=CC(=O)Nc1ccc(C(=O)Nc2[nH]nc3c2CN(C(=O)N[C@H](CN(C)C)c2ccccc2)C3(C)C)cc1`: the % of engagement is -7.9% in test [7] (Selectivity number of off-targets 0.0, Selectivity number of targets 233.0, Source Knowledge https://www.sciencedirect.com/science/article/pii/S2451945619300674?via%3Dihub) and -8.1% in test [7].
